Each molecule was assayed against T1, human TLR9 (Homo sapiens, UniProt Q9NR96) (assay: HEK293-Blue-hTLR-9 cells assay). Conditions: HEK293-Blue-hTLR9 cells, ODN2006 stimulation, 20 hrs, SEAP reporter; read-out: HEK/hTLR9 IC50.
T1 construct: host or cells: HEK293 (HEK-Blue hTLR9)
T1 sequence (Q9NR96 26-1032): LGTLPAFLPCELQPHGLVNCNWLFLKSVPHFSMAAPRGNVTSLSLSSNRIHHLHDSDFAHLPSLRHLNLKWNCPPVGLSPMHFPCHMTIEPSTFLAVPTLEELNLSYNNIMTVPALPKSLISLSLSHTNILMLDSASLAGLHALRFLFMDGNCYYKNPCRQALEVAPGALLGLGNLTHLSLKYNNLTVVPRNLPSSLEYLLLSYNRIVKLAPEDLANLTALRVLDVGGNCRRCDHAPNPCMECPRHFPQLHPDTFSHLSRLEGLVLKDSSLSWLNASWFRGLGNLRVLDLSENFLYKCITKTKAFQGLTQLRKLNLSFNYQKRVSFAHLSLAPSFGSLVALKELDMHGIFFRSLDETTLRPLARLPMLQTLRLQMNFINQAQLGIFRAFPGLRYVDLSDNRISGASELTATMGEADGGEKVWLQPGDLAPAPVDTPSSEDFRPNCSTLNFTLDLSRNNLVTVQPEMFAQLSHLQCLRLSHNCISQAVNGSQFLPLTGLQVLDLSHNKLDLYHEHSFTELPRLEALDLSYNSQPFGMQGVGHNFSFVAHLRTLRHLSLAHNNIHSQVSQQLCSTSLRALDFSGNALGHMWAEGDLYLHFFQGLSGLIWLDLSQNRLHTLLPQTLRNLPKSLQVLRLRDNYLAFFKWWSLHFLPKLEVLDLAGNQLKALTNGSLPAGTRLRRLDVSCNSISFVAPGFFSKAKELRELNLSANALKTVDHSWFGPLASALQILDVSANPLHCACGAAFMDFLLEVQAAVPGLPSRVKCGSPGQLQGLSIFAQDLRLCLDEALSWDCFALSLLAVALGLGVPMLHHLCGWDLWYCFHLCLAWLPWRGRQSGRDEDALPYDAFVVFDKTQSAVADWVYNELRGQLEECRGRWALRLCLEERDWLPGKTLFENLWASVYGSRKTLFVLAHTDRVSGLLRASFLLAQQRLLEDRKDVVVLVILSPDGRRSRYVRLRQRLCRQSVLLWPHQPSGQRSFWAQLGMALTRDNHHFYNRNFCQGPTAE
Type: cell-based
Excerpt: HEK293-Blue-hTLR-9 Cells Assay:
A stable HEK293-Blue-hTLR-9 cell line was purchased from InvivoGen (Cat. #: hkb-htlr9, San Diego, Calif., USA). These cells were originally designed for studying the stimulation of human TLR9 by monitoring the activation of NF-κB. A SEAP (secreted embryonic alkaline phosphatase) reporter gene was placed under the control of the IFN-β minimal promoter fused to five NF-κB and AP-1-binding sites. The SEAP was induced by activating NF-κB and AP-1 via stimulating HEK-Blue hTLR9 cells with TLR9 ligands. Therefore the reporter expression was declined by TLR9 antagonist under the stimulation of a ligand, such as ODN2006 (Cat. #: tlrl-2006-1, Invivogen, San Diego, Calif., USA), for incubation of 20 hrs. The cell culture supernatant SEAP reporter activity was determined using QUANTI-Blue^TM kit (Cat. #: rep-qbl, Invivogen, San Diego, Calif., USA) at a wavelength of 640 nm, a detection medium that turns purple or blue in the presence of alkaline phosphatase.
HEK293-Blue-hTLR9 cells were incubated at a density of 250,000˜450,000 cells/mL in a volume of 170 μL in a 96-well plate in Dulbecco's Modified Eagle's medium (DMEM) containing 4.5 g/L glucose, 50 U/mL penicillin, […] streptomycin, […] Normocin, 2 mM L-glutamine, 10% (v/v) heat-inactivated fetal bovine serum with addition of 20 μL test compound in a serial dilution in the presence of final DMSO at 1% and 10 μL of 20 uM ODN2006 in above DMEM, perform incubation under 37° C. in a CO2 incubator for 20 hrs. Then 20 μL of the supernatant from each well was incubated with 180 μL Quanti-blue substrate solution at 37° C. for 2 h and the absorbance was read at 620-655 nm using a spectrophotometer. The signaling pathway that TLR9 activation leads to downstream NF-κB activation has been widely accepted, and therefore similar reporter assay was modified for evaluating TLR9 antagonist.

Question: For `[2H]c1ccc2c(N3C[C@@H](C)N4Cc5nc(O[C@H]6CCNC6)ccc5[C@H]4C3)ccc(C#N)c2n1` [Example 25, 2-Deuterio-5-[(2S,6R)-6-methyl-11-[(3S)-pyrrolidin-3-yl]oxy-4,7,10-triazatricyclo[7.4.0.02,7]trideca-1(9),10,12-trien-4-yl]quinoline-8-carbonitrile], which IC50 is on record?
Answer: The IC50 was 274 nM.

Question: Which IC50 does the source give for `[2H]c1ccc2c(N3C[C@@H](C)N4Cc5nc(N6CCC7(CC6)CNCCO7)ccc5[C@H]4C3)ccc(C#N)c2n1` [Example 18, 2-Deuterio-5-[(2S,6R)-6-methyl-11-(1-oxa-4,9-diazaspiro[5.5]undecan-9-yl)-4,7,10-triazatricyclo[7.4.0.02,7]trideca-1(9),10,12-trien-4-yl]quinoline-8-carbonitrile] here?
Answer: Its IC50 is 262 nM.

Question: Which IC50 does the source give for `[2H]c1ccc2c(N3C[C@@H](C)N4Cc5nc(N6CC[C@H](N)[C@@H](OC)C6)ccc5[C@H]4C3)ccc(C#N)c2n1` [Example 12, 5-[(2S,6R)-11-[(3S,4S)-4-amino-3-methoxy-1-piperidyl]-6-methyl-4,7,10-triazatricyclo[7.4.0.02,7]trideca-1(9),10,12-trien-4-yl]-2-deuterio-quinoline-8-carbonitrile] here?
Answer: Its IC50 is 305 nM.

Question: With `[2H]c1ccc2c(N3C[C@@H](C)N4Cc5nc(N6C[C@H]7C[C@@H]6CN7)ccc5[C@H]4C3)ccc(C#N)c2n1` [Example 17, 2-Deuterio-5-[(2S,6R)-11-[(1R,4R)-2,5-diazabicyclo[2.2.1]heptan-2-yl]-6-methyl-4,7,10-triazatricyclo[7.4.0.02,7]trideca-1(9),10,12-trien-4-yl]quinoline-8-carbonitrile] as the molecule, how does the IC50 read?
Answer: The IC50 was 53.4 nM.

Question: `N#Cc1ccc(N2CCN3Cc4nc(N5CCNCC5)ccc4[C@@H]3C2)c2cccnc12` [Example 3A, 5-[(2R)-11-piperazin-1-yl-4,7,10-triazatricyclo[7.4.0.02,7]trideca-1(9),10,12-trien-4-yl]quinoline-8-carbonitrile] was tested. Which IC50 did it give?
Answer: The IC50 was 142 nM.

Question: How did the IC50 turn out when `[2H]c1ccc2c(N3C[C@@H](C)N4Cc5nc(N6CC[C@](C)(N)C6)ccc5[C@H]4C3)ccc(C#N)c2n1` [Example 8, 5-[(2S,6R)-11-[(3S)-3-amino-3-methyl-pyrrolidin-1-yl]-6-methyl-4,7,10-triazatricyclo[7.4.0.02,7]trideca-1(9),10,12-trien-4-yl]-2-deuterio-quinoline-8-carbonitrile] was run?
Answer: The IC50 was 139 nM.

Question: Which IC50 does the source give for `C[C@@H]1CN(c2ccc(C#N)n3nccc23)C[C@@H]2c3ccc(N4C[C@@H]5C[C@H]4CN5)nc3CN12` [Example 21, 4-[(2S,6R)-11-[(1S,4S)-2,5-diazabicyclo[2.2.1]heptan-2-yl]-6-methyl-4,7,10-triazatricyclo[7.4.0.02,7]trideca-1(9),10,12-trien-4-yl]pyrazolo[1,5-a]pyridine-7-carbonitrile] here?
Answer: Its IC50 is 177 nM.

Question: How did the IC50 turn out when `C[C@@H]1CN(c2ccc(C#N)c3ncccc23)C[C@@H]2c3cnc(N4CCNCC4)cc3CN12` [Example 2, 5-[(2S,6R)-6-methyl-11-piperazin-1-yl-4,7,12-triazatricyclo[7.4.0.02,7]trideca-1(9),10,12-trien-4-yl] quinoline-8-carbonitrile] was run?
Answer: Its IC50 is 449 nM.

Question: How did the IC50 turn out when `[2H]c1ccc2c(N3C[C@@H](C)N4Cc5nc(C6CCNCC6)ccc5[C@H]4C3)ccc(C#N)c2n1` [Example 23, 2-Deuterio-5-[(2S,6R)-6-methyl-11-(4-piperidyl)-4,7,10-triazatricyclo[7.4.0.02,7]trideca-1(9),10,12-trien-4-yl]quinoline-8-carbonitrile] was run?
Answer: The IC50 was 232 nM.

Question: `C[C@@H]1CN(c2ccc(C#N)c3ncccc23)C[C@@H]2c3ccc(N4CCNCC4)nc3CN12` [Example 5, 5-[(2S,6R)-6-methyl-11-piperazin-1-yl-4,7,10-triazatricyclo[7.4.0.02,7]trideca-1(9),10,12-trien-4-yl]quinoline-8-carbonitrile] was tested. Which IC50 did it give?
Answer: Its IC50 is 252 nM.

Question: How did the IC50 turn out when `C[C@@H]1CN(c2ccc(C#N)c3ncccc23)C[C@@H]2c3ccc(N4CC5CNCC(C4)O5)nc3CN12` [Example 6, 5-[(2S,6R)-6-methyl-11-(9-oxa-3,7-diazabicyclo[3.3.1]nonan-3-yl)-4,7,10-triazatricyclo[7.4.0.02,7]trideca-1(9),10,12-trien-4-yl]quinoline-8-carbonitrile] was run?
Answer: Its IC50 is 195 nM.

Source: US12503471B2, “Triazatricycle compounds for the treatment of autoimmune disease” (Hoffmann-La Roche Inc., priority 2019, dated 2025)
